Read-outs that look alike come from different tables or passages of the source.
What was measured:
[1] = tested on: non-alcoholic fatty liver pathway genes in healthy human cells; assay: Microarray experiment: gene expression related to fatty liver; format: cell-based; details: healthy human cells treated for 3 days; ADIPOR2, PRKAG2, IRS1, PIK3R1, NFKB1, MAP3K11, BID, CYCS, BAX, CASP3, TGFB1
Procedure: All changes in the level of gene expression related to fatty liver in healthy human cells were determined by this method upon being treated with sodium borates for 3 days. It was determined how these genes affect the pathway related to fatty liver. As a result of the microarray experiment, it is understood that the expression level of many genes in the non-alcoholic fatty liver pathway decreased by 2 times and more, and fatty liver was prevented as the pathway lost its function substantially. Genes, whose expression was reduced, were ADIPOR2, PRKAG2, IRS1, PIK3R1, NFKB1, MAP3K11, BID, CYCS, BAX, CASP3 and TGFB1 (FIG. 1). In our in vivo study, it has been proven on animals that fatty liver was inhibited as a result of the failure of this pathway.

[2] = tested on: fatty liver caused by high-fat diet in balb/c mice; assay: In vivo experiment: liver weight of high-fat diet mice; details: YYD supplemented with 1.5 mg/g SB, 10 weeks, female balb/c mice
Procedure: (§1) 8-weeks-old female 24 balb/c mice were used for the in vivo experiment. The adaptation process was completed in cages in a temperature-controlled room with a 12-hour light/dark cycle. Then, the mice were divided into four different dietary groups (n=6 for each group): normal diet (2.70 kcal/g), high-fat diet (YYD) (4.00 kcal/g), YYD supplemented with 0.5 mg/g SB, and YYD supplemented with 1.5 mg/g SB. At the end of 10 weeks, mice were sacrificed and weights of their livers were measured. At the end of 10 weeks, the livers of the mice were removed and weighed, and it was observed that fatty liver caused by high-fat diet was inhibited by the use of 1.5 mg/g SB as a supplement (FIG. 2A).

[3] = tested on: pathological disorders in the liver caused by high-fat diet in balb/c mice; assay: Histological evaluation of liver tissue (hematoxylin-eosin staining scores); format: in vivo; details: for hematoxylin-eosin staining technique score (Mean ± SD): 10 weeks, n = 6, YYD alone 12.6 ± 1.54, control 1.60 ± 1.14
Procedure: as §1
Liver tissues of mice were prepared for histological evaluation. These tissue samples were immersed in 10% neutral formaldehyde prepared with 0.1 M phosphate buffer (pH 7.4) for fixation at 4° C. Subsequently, the samples were rinsed in tap water for 12 hours, then dehydrated in an alcohol batch and embedded in paraffin. From samples embedded in paraffin, 5 micron thick samples were obtained using a rotary microtome (Leica RM 2245 model; Leica Instruments, Germany). All tissue sections were taken onto poly-L-lysine coated slides. All these samples were stained with hematoxylin eosin staining technique and imaged under a light microscope (Leica DM6000B). […] This method has been used to evaluate the situation of pathological deteriorations caused by high fat diet when different sodium boron administrations are applied and when not applied.

[4] = Toxicology studies in rats adapted to humans; format: in vivo; details: daily dose of 500 mg, rat toxicology studies adapted to humans
Procedure: Today, there is no specific drug for direct treatment of fatty liver. […] It is known that boron homeostasis taken into mammalian systems is excreted via urine within 72 hours. Boron also regulates calcium, potassium and magnesium metabolisms in the body.

[5] = cited from earlier work

Compound | decrease in expression levels of genes in the non-alcoholic fatty liver pathway [1] [times] | fatty liver caused by high-fat diet (liver weight) [2] | hematoxylin-eosin staining technique score (Mean ± SD) ([3]; YYD + 0.5 mg SB/g VA) | hematoxylin-eosin staining technique score (Mean ± SD) ([3]; YYD + 1.5 mg SB/g VA) | hematoxylin-eosin staining technique score (Mean ± SD) ([3]; YYD + 1.5 mg SB/g VA, listed as sodium borate) | pathological disorders caused by high-fat diet (histological evaluation) ([3]; both doses (0.5 and 1.5 mg/g), liver tissue) | side effects [4] | time to excretion via urine ([5]; mammalian systems) [h] | side effects ([5]; up to 18 mg of boron daily in adults)
sodium borate [SB] | ≥ 2 | inhibited | 8.6±1.14 | 3.6 ± 0.89 | 3.6±0.89 | decreased the pathological disorders | no side effects |  | 
[B] [boron] |  |  |  |  |  |  |  | ≤ 72 | does not cause any side effects

— patent US20240000831A1, “MOLECULAR BASIS OF FATTY LIVER INHIBITION BY SODIUM BORATES” (YEDITEPE UNIVERSITESI, priority 2020, published 2024)
